Patent US5968791A, “Plant lysophosphatidic acid acyltransferases” (Calgene, Inc., priority 1995, dated 1999)

Experiments:
[1] = molecular target: T1, coconut LPAAT (Cocos nucifera, UniProt Q42670); assay: LPAAT activity assay, coconut P2 membrane preparation; assay type: biochemical; design: white endosperm tissue lining the inside of the endocarp can be dissected and collected; from tissue; host or cells: immature coconut endosperm, P2 membrane fraction; conditions: for effect on medium-chain LPAAT activity: coconut P2
T1 sequence (Q42670 1-308): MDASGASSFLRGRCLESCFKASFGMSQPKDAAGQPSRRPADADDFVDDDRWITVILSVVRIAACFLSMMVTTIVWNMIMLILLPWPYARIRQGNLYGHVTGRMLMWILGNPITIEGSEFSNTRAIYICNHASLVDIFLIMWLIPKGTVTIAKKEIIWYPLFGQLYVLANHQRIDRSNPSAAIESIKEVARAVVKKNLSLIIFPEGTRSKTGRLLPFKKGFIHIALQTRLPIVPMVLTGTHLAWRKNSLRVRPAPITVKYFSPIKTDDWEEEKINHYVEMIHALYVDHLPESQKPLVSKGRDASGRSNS
Protocol: (§1) To assay for LPAAT activity, the sample is incubated with lysophosphatidic acid (LPA) and acyl-coenzyme A (acyl-CoA) substrates in buffered solution. The acyl substituents of the two substrates are chosen to correspond with the specificity of the enzyme being measured. For example, to measure activity of an LPAAT having preference for medium-chain substrates, lauroyl-LPA (lauroyl-lysophosphatidic acid) and lauroyl-CoA may be used, to measure activity of an LPAAT preferring longer-chain acyl groups, oleoyl-LPA and oleoyl-CoA may be used, to measure activity of an LPAAT preferring very-long chain substrate, erucyl-LPA and erucyl-CoA may be used, and so on, depending upon the type of LPAAT to be tested. The acyl group of one substrate is radioactively labeled in order to detect the product formed. In the examples which follow the acyl substituent of the acyl-CoA substrate is radiolabeled with ^14 C in the carboxyl group. LPAAT activity results in transfer of this acyl group from the acyl-CoA "donor" substrate to the LPA "acceptor" substrate, converting the latter into the product, phosphatidic acid (PA). LPAAT activity is measured as the amount of radioactive product formed in a given assay time. The PA product is radioactive as a result of the transferred radiolabeled acyl group at the central carbon atom of the molecule, and the quantity of PA formed may be determined by measuring radioactivity of the PA fraction. For this measurement, the PA is first separated from the acyl-CoA substrate by solvent partitioning, or by thin-layer chromatography (TLC).
(§2) 20 μl of the sample to be assayed for LPAAT activity is mixed with 217.5 μl of an assay ingredient mixture in a 4-ml, screw-cap vial. […] The incubation takes place in a water bath at 30° C., for 20-30 minutes.
(§3) To stop the assay, 0.25 ml of 1M KCl in 0.2M H3 PO4 is added to the vial. At this point, 40 μl BSA (bovine serum albumin, fraction V) at 1 mg/ml are added, followed by 0.75 ml of a solution of 67 μg/ml unlabeled PA (acting as a "carrier" to facilitate partitioning) in chloroform/methanol (2:1, v/v). The chain lengths of the PA acyl groups are chosen to correspond to those used in the assay substrates. Upon thorough mixing of these components the radiolabeled PA product of the LPAAT reaction partitions into the organic phase and away from the unreacted acyl-CoA and LPA. The vial is centrifuged briefly at low speed to facilitate the separation of organic (lower) and aqueous (upper) phases. The aqueous phase is then removed and discarded. The total radioactivity extracted into the organic phase is determined by liquid scintillation counting; a 100 μl sample of the organic phase is transferred to a 20 ml scintillation vial and allowed to dry, and scintillation fluid (3-5 ml) is added to the vial. The radioactivity of the sample, after subtraction of the "minus-enzyme" or "minus-LPA" radioactivities, is taken as an approximate indication of the amount of PA formed in the LPAAT-catalyzed reaction and therefore of LPAAT activity.
A more accurate estimation of the LPAAT activity may be obtained by separating the PA product from these contaminants by TLC. The remaining organic phase is applied to a silica TLC plate. Ascending chromatography is carried out for 50 minutes, using the solvent mixture chloroform/pyridine/88% formic acid (50:30:7, v/v). After the plate has dried, the distribution of radioactivity is visualized and quantitated using an AMBIS radioanalytic imaging system (AMBIS Systems Inc., San Diego, Calif.). From prior application of standard lipid components the Rf of the PA is known. The radioactivity associated with the PA spot is expressed as a percentage of the total radioactivity of the assay sample loaded on the plate. This ratio provides an indication of the proportion of the scintillation counts which represent the PA product, and may be used to correct the counts to obtain the total PA radioactivity formed in the assay. […]

[2] = molecular target: T2, coconut medium-chain LPAAT (Cocos nucifera, UniProt Q42670); assay: Assay of solubilized coconut LPAAT (S3 preparation) with phospholipid activation; assay type: biochemical; conditions: for effect on LPAAT activity of the coconut S3 preparation: added at 1 mM; for reduction of LPAAT activity of the coconut S3 preparation: added at 10 mM
T2 construct: The frozen coconut P2 preparation is thawed and diluted in a volume of P2 Buffer; from tissue; host or cells: immature coconut endosperm, solubilized S3 supernatant of P2 membranes
T2 sequence (Q42670 1-308): T1 sequence (Q42670 1-308)
Protocol: After solubilization of LPAAT protein from plant membranes as described below, modification of the above assay conditions is required in order to detect maximum LPAAT activity. This is especially important after the solubilized LPAAT has been chromatographed on at least one column. The important modification to the assay is the addition, at the start of the assay procedure, of 1 μl of a concentrated phospholipid (PL) solution to 20 μl of the LPAAT-containing sample in a glass vial. The high concentrations of CHAPS (at least 1% w/v) and NaCl (typically 0.5M or greater) in the solubilized LPAAT preparation aid in dispersal of the phospholipids. The phospholipid solution is obtained by sonicating crude soybean phospholipids (L-phosphatidylcholine from soybean, "Type IVs" obtained from Sigma Chemical Company, St. Louis) at 50 mg/ml in 0.5% (w/v) CHAPS (3-[(3-cholamidopropyl) -dimethylammonio]-1-propane-sulfonate) until a uniform suspension is obtained.
The remaining assay ingredients (as described above), with the exception of the acyl-CoA substrate, are then added as 219 μl of a mixture. […] Radiolabeled acyl-CoA (10 μl, or an appropriately adjusted volume as indicated above) is added to start the LPAAT-catalyzed reaction and the rest of the assay procedure is completed as described above.
All steps are carried out at 0-4° C. The frozen coconut P2 preparation is thawed and diluted in a volume of P2 Buffer to achieve a protein concentration of 0.94 mg/ml P2 protein. Protein concentration is determined by Coomassie dye staining relative to a bovine serum albumin standard. The P2 membrane suspension is then diluted with an equal volume of Solubilization Buffer (50 mM HEPES-NaOH, pH 7.5, […], 20% (w/v) glycerol, 4.5% (w/v) CHAPS, 100 μM Pefabloc, 1 μM leupeptin, 1 μM Pepstatin A, and 5 mM β-ME), resulting in final concentrations of 1M NaCl, 2.25% (w/v) detergent, and 0.47 mg/ml protein. These component concentrations, and the resulting detergent/protein ratio of 48/1 (w/w), are important for optimal solubilization. The preparation is then incubated on ice for 30 minutes with occasional, gentle stirring, followed by centrifugation at 252,000×g for 2 hours. The resulting supernatant fraction (S3) is filtered through buffer-wetted Miracloth, and may then be stored frozen (-70) with only slight loss of activity. Optimally, it is applied to chromatography columns without an intervening freeze-thaw cycle.
Assay of the coconut medium-chain LPAAT activity after solubilization (S3 preparation) and reactivation with PLs, using different acyl-CoA substrates, provides the following results (Table 3). In all these assays the acceptor substrate is 12:0-LPA.

[3] = system: bay LPAAT; assay: LPAAT activity assay, California bay P2 membrane preparation; assay type: biochemical, Umbellularia californica; conditions: for detergent concentration in the assay that inhibits long-chain LPAAT activity completely: 18:1-CoA and 18:1-LPA, concentrations w/v; for detergent concentration tolerated without complete loss of activity: 1-hour exposure, diluted prior to assay
Protocol: To assay for LPAAT activity, the sample is incubated with lysophosphatidic acid (LPA) and acyl-coenzyme A (acyl-CoA) substrates in buffered solution. The acyl substituents of the two substrates are chosen to correspond with the specificity of the enzyme being measured. […] The acyl group of one substrate is radioactively labeled in order to detect the product formed. In the examples which follow the acyl substituent of the acyl-CoA substrate is radiolabeled with ^14 C in the carboxyl group. LPAAT activity results in transfer of this acyl group from the acyl-CoA "donor" substrate to the LPA "acceptor" substrate, converting the latter into the product, phosphatidic acid (PA). LPAAT activity is measured as the amount of radioactive product formed in a given assay time. The PA product is radioactive as a result of the transferred radiolabeled acyl group at the central carbon atom of the molecule, and the quantity of PA formed may be determined by measuring radioactivity of the PA fraction. For this measurement, the PA is first separated from the acyl-CoA substrate by solvent partitioning, or by thin-layer chromatography (TLC).

[4] = system: Rapeseed LPAAT; assay: LPAAT activity assay, rapeseed P2 membrane preparation; assay type: biochemical, Brassica napus; conditions: acyl-CoA donor varied, acceptor 12:0-LPA
Protocol: as §1, §2, §3
A more accurate estimation of the LPAAT activity may be obtained by separating the PA product from these contaminants by TLC. The remaining organic phase is applied to a silica TLC plate. […] After the plate has dried, the distribution of radioactivity is visualized and quantitated using an AMBIS radioanalytic imaging system (AMBIS Systems Inc., San Diego, Calif.). From prior application of standard lipid components the Rf of the PA is known. The radioactivity associated with the PA spot is expressed as a percentage of the total radioactivity of the assay sample loaded on the plate. This ratio provides an indication of the proportion of the scintillation counts which represent the PA product, and may be used to correct the counts to obtain the total PA radioactivity formed in the assay.
A P2 membrane homogenate from immature embryos of developing rapeseed (Brassica napus) seeds is prepared essentially as described above, except as noted below.

[5] = P2 membrane preparation, acyl-CoA donor varied, acceptor 12:0-LPA

Molecule: CCCCCC(=O)SCCNC(=O)CCNC(=O)[C@H](O)C(C)(C)COP(=O)(O)OP(=O)(O)OC[C@H]1O[C@@H](n2cnc3c(N)ncnc32)[C@H](O)[C@@H]1OP(=O)(O)O [6:0]
- LPAAT Activity from Coconut [1, 5]: 3 pmol PA formed/30 min assay
- LPAAT Activity, solubilized coconut LPAAT ([2]; radioactivity of PA product resolved on TLC, after 30 min assay, S3 reactivated with PLs, acceptor 12:0-LPA): 1 cpm
- LPAAT Activity from Bay [3, 5]: 1 pmol PA formed/30 min assay
- LPAAT Activity from Rapeseed [4]: 0 pmol PA formed/30 min assay

Molecule: C[C@H](CCC(=O)NCCC[N+](C)(C)CCCS(=O)(=O)[O-])[C@H]1CC[C@H]2[C@@H]3[C@H](O)C[C@@H]4C[C@H](O)CC[C@]4(C)[C@H]3C[C@H](O)[C@]12C [CHAPS, 3-[(3-cholamidopropyl) -dimethylammonio]-1-propane-sulfonate]
- concentration above which inhibitory in the medium-chain LPAAT assay ([1]; coconut medium-chain LPAAT assay): above 0.1 % (w/v)
- inhibition at 5000 µg/mL ([1]; read-out: LPAAT activity loss): 50%

Molecule: [Ca+2] [Ca^2+]
- effect on LPAAT activity of the coconut S3 preparation [2]: without significant effect
- reduction of LPAAT activity of the coconut S3 preparation [2]: ≥ 50%

Molecule: CC(C)(COP(=O)(O)OP(=O)(O)OC[C@H]1O[C@@H](n2cnc3c(N)ncnc32)[C@H](O)[C@@H]1OP(=O)(O)O)[C@@H](O)C(=O)NCCC(=O)NCCS [CoA]
- effect on medium-chain LPAAT activity ([1]; 0.1 mM in the assay system): unaffected

Molecule: [Mg+2] [Mg^2+]
- effect on LPAAT activity of the coconut S3 preparation [2]: without significant effect
- reduction of LPAAT activity of the coconut S3 preparation [2]: ≥ 50%

Molecule: [Mn+2] [Mn^2+]
- effect on LPAAT activity of the coconut S3 preparation [2]: without significant effect
- reduction of LPAAT activity of the coconut S3 preparation [2]: ≥ 50%

Molecule: CCCCCCCCCCCCOS(=O)(=O)[O-].[Na+] [SDS, sodium dodecyl sulfate]
- detergent concentration in the assay that inhibits long-chain LPAAT activity completely ([3]; bay P2 preparation): 0.002%

Molecule: CCCCCCCCCCCCCC[N+](C)(C)CCCS(=O)(=O)[O-] [Zwittergent 3-14]
- detergent concentration in the assay that inhibits long-chain LPAAT activity completely ([3]; bay P2 preparation): 0.005%

Molecule: Nc1ncnc2c1ncn2[C@@H]1O[C@H](COP(=O)(O)OP(=O)(O)OP(=O)(O)O)[C@@H](O)[C@H]1O [adenosine-5'-triphosphate]
- effect on medium-chain LPAAT activity ([1]; 2 mM in the assay system): unaffected

Molecule: CCCCCCCCO[C@@H]1O[C@H](CO)[C@@H](O)[C@H](O)[C@H]1O [octyl glucoside]
- detergent concentration tolerated without complete loss of activity ([3]; bay P2 preparation): 0.5%
- detergent concentration in the assay that inhibits long-chain LPAAT activity completely ([3]; bay P2 preparation): 0.1%

Molecule: C[C@H](CCC(=O)O)[C@H]1CC[C@H]2[C@@H]3CC[C@@H]4C[C@H](O)CC[C@]4(C)[C@H]3C[C@H](O)[C@]12C [sodium deoxycholate]
- detergent concentration in the assay that inhibits long-chain LPAAT activity completely ([3]; bay P2 preparation): 0.1%

Molecule: Triton X100
- detergent concentration tolerated without complete loss of activity ([3]; bay P2 preparation): 0.1%
- detergent concentration in the assay that inhibits long-chain LPAAT activity completely ([3]; bay P2 preparation): 0.03%

Molecule: Tween 20
- detergent concentration tolerated without complete loss of activity ([3]; bay P2 preparation): 2.5%
- detergent concentration in the assay that inhibits long-chain LPAAT activity completely ([3]; bay P2 preparation): 1%

Molecule: lysophosphatidylcholine
- effect on medium-chain LPAAT activity ([1]; 60 μM in the assay system): unaffected

B1: 18:1-ACP: 18:1 acyl-ACP tested as LPAAT donor substrate (conjugate, UniProt P0A6A8 2-78, looked up)
Acyl carrier protein: STIEERVKKIIGEQLGVKQEEVTNNASFVEDLGADSLDTVELVMALEEEFDTEIPDEEAEKITTVQAAIDYINGHQA
modifications: 18:1 acyl thioester
notes: 18:1 acyl-ACP tested as LPAAT donor substrate
- utilization as LPAAT donor substrate instead of 18:1-CoA ([3]; bay P2 preparation): will not significantly utilize
